Measured values from PMC10467108, “Of Seven New K^+ Channel Inhibitor Peptides of Centruroides bonito, α-KTx 2.24 Has a Picomolar Affinity for Kv1.2” (Toxins, 2023).
“Also recorded” adds a separate entry of the source. Read-outs that look alike come from different tables or passages of the source. Where a SMILES comes first, the peptide text is derived from it. Bridges are numbered along the chain shown (N, C = ends).

Assays:
Assay type in all cases: cell-based
hKv1.1 = biological target: T1, hKv1.1 (Homo sapiens, UniProt Q09470); assay: Whole-cell patch-clamp of Kv1.1 currents in transiently transfected CHO cells
T1 construct: host or cells: CHO cells, transient transfection (Lipofectamine 2000)
Description: (§1) Macroscopic Kv1.1 and Kv1.2 currents were measured in transiently transfected CHO cells. For Kv1.3 current recording, human T lymphocytes were activated by Phytohemagglutinin A (PHA) to increase Kv1.3 channel expression, and micro-pipettes were filled with Ca^2+-free solution to prevent KCa3.1 channel activation. K^+ currents were evoked by applying 15-ms-long depolarization pulses to +50 mV from a holding potential of −120 mV except for Kv1.2, as it has highly variable activation kinetics; therefore, 15–500 ms-long pulses were applied to maximize the open probability of Kv1.2 channel. CboK peptide toxins were dissolved in a freshly prepared extracellular solution and applied to the whole-cell patch-clamped cells using a micro perfusion system at 200 μL/min flow rate.
(§2) CHO cells were transiently transfected by using Lipofectamine 2000 kit (Invitrogen, Carlsbad, CA, USA), as per the manufacturer’s protocol with vector pCMV6-AC-GFP (cat# RG211000 and RC222200; OriGene Technologies, Rockville, MD, USA) encoding hKv1.1 (hKCNA1 gene) or hKv1.2 (hKCNA2 gene) ion channels. Cells were grown under standard conditions in an incubator at 37 °C and 5% CO2 for 24 h. GFP-positive transfected cells were identified by utilizing a Nikon TMS fluorescence microscope (Nikon, Tokyo, Japan) using bandpass filters of 455–495 nm and 515–555 nm for excitation and emission, respectively.
(§3) The patch-clamp technique was used for measuring whole-cell currents in voltage-clamped mode using standard protocols. Electrophysiological recordings were acquired by using Multiclamp 700B amplifier connected to a personnel computer with an Axon Digidata1440 digitizer (Molecular Devices, Sunnyvale, CA, USA). Pipettes were pulled from GC150F-15 borosilicate capillaries (Harvard Apparatus, Kent, UK) having 3−5 MΩ tip resistance in the bath solution. All current recordings were carried out at room temperature (20−25 °C) and only those currents were recorded and subjected to analyses when the leak current at holding potential was <5% of peak current at the test potential. Current traces were lowpass-filtered by utilizing the built-in analog four-pole Bessel filters of the amplifiers and were sampled at 20 kHz which is at least twice the filter cut-off frequency. A gravity-driven perfusion system was used to perfuse the cells with control and test solutions and excess fluid was removed continuously through vacuum suction. The extracellular solution (bath solution) contained 145 mM NaCl, 5.5 mM glucose, 5 mM KCl, 2.5 mM CaCl2, 1 mM MgCl2, and 10 mM HEPES, having pH of 7.35 and an osmolarity between 302 and 308 mOsM/L. Toxins were dissolved in bath solution at different molar concentrations and supplemented with 0.1 mg/mL of bovine serum albumin BSA (Sigma-Aldrich, Budapest, Hungary). The intracellular solution (pipette filling) was comprised of 140 mM KF, 2 mM MgCl2, 1 mM CaCl2, 10 mM HEPES, and 11 mM EGTA, with a pH of 7.22 and an osmolarity of ~295 mOsM/L.
(§4) Generally, to evoke the Kv1.xcurrents, 15-ms-long depolarization pulses to +50 mV from a holding potential of −120 mV were applied, and the current traces were recorded after every 15 s. However, in the case of Kv1.2, due to its variable activation kinetics, the duration of the depolarization pulse was set between 15 and 500 ms to attain the saturated peak current.

hKv1.2 = biological target: T2, hKv1.2 (Homo sapiens, UniProt P16389); assay: Whole-cell patch-clamp of Kv1.2 currents in transiently transfected CHO cells
T2 construct: GFP (C); host or cells: CHO cells, transient transfection (Lipofectamine 2000)
Description: as §1, §2, §3, §4

Kv1.3 = biological target: T3, Kv1.3 (Homo sapiens, UniProt P22001); assay: Whole-cell patch-clamp of Kv1.3 currents in PHA-activated human T lymphocytes; settings: for Hill coefficient H, Kv1.3 block: Hill fit of isochronal RCF (4 ms)
T3 construct: endogenous in cells
Description: as §1
Isochronal RCF data points obtained this way (isochronal RCF = I4ms/I4ms,0 where I4ms,0 and I4ms are the currents at 4 ms time point in the absence and presence of CboK peptides, respectively) at different toxin concentrations were fitted with the Hill equation to obtain concentration–response curves as shown in Figure 6H.
Human peripheral venous blood was acquired from anonymous healthy volunteers from the blood bank. Blood samples were collected by having approval from the Ethical Committee of the Hungarian Medical Research Council (36255-6/2017/EKU). PBMCs were separated by Histopaque 1077 (Sigma-Aldrich, Budapest, Hungary) separation technique, and isolated cells, at the density of 5 × 10^5 cells, were cultured in RPMI 1640 media (Gibco, Grand Island, NY, USA) supplemented with 10% FBS (Sigma-Aldrich, Budapest, Hungary), 2 mM L-glutamine, […], and […] penicillin in a humidified incubator at 37 °C and 5% CO2 for 3–6 days. A measure of 2, 5, or 10 μg/mL of Phytohemagglutinin A (PHA) (Sigma-Aldrich, Budapest, Hungary) was added in cultured cells to activate the PBMCs and upregulate the Kv1.3 expression.
as §3, with “suction.” for “suction. The extracellular solution (bath solution) contained 145 mM NaCl, 5.5 mM glucose, 5 mM KCl, 2.5 mM CaCl2, 1 mM MgCl2, and 10 mM HEPES, having pH of 7.35 and an osmolarity between 302 and 308 mOsM/L. Toxins were dissolved in bath solution at different molar concentrations and supplemented with 0.1 mg/mL of bovine serum albumin BSA (Sigma-Aldrich, Budapest, Hungary). The intracellular solution (pipette filling) was comprised of 140 mM KF, 2 mM MgCl2, 1 mM CaCl2, 10 mM HEPES, and 11 mM EGTA, with a pH of 7.22 and an osmolarity of ~295 mOsM/L.”

[1] = Hill fit of RCF vs toxin concentration, n ≥ 3

T3 sequence (P22001 whole entry): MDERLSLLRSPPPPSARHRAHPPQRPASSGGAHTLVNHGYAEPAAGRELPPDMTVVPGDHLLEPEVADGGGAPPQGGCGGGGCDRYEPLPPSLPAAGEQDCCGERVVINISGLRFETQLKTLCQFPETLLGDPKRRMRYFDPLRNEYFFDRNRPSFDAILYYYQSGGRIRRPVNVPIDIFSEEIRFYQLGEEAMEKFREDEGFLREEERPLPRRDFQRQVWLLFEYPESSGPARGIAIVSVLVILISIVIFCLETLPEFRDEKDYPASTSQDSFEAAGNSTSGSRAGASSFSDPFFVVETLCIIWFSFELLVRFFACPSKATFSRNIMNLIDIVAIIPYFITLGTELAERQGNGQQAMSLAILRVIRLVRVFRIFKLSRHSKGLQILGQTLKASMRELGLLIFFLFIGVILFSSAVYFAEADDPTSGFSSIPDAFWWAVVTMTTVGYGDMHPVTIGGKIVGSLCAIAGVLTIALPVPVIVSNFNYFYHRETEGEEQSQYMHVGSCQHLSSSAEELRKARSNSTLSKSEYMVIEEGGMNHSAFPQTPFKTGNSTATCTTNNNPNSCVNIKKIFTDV
T1 sequence (Q09470 whole entry): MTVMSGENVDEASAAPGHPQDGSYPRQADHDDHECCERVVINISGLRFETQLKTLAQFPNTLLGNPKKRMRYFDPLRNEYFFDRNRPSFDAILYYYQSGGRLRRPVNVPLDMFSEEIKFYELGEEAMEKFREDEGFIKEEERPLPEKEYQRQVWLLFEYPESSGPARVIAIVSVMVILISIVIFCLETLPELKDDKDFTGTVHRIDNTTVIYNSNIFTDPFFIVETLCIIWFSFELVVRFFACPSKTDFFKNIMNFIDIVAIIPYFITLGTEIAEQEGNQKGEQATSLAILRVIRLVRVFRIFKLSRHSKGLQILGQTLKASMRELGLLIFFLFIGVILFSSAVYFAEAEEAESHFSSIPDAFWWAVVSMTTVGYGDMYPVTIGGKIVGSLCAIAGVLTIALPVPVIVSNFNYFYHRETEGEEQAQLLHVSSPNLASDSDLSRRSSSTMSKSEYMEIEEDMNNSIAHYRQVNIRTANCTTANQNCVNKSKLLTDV
T2 sequence (P16389 whole entry): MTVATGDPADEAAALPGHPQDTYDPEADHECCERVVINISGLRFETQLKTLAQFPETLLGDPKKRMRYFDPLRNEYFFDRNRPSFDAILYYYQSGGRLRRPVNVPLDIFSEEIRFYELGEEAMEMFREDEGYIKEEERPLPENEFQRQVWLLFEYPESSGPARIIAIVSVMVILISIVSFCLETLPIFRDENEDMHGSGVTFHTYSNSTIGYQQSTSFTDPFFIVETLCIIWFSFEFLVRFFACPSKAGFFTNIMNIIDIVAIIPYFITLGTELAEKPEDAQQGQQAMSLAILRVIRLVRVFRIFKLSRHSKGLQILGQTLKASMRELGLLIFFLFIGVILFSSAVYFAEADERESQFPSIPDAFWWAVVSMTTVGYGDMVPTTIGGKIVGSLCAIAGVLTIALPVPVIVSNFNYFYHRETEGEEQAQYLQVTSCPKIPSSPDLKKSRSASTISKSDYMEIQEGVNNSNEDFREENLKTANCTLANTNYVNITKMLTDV

CC[C@H](C)[C@@H]1NC(=O)[C@@H]2CSSC[C@H](NC(=O)[C@H](C)NC(=O)[C@@H](NC(=O)[C@@H](N)CC(N)=O)C(C)C)C(=O)N[C@@H](C(C)C)C(=O)N[C@@H](Cc3c[nH]cn3)C(=O)N[C@@H](CCCNC(=N)N)C(=O)N[C@@H]([C@@H](C)O)C(=O)N[C@H]3CSSC[C@H](NC(=O)[C@H](CCCCN)NC(=O)[C@H](CCCNC(=N)N)NC(=O)[C@H](CC(N)=O)NC1=O)C(=O)N[C@@H](CC(N)=O)C(=O)N[C@H](C(=O)N[C@@H](Cc1ccc(O)cc1)C(=O)N1CCC[C@H]1C(=O)N[C@@H](Cc1c[nH]cn1)C(=O)O)CSSC[C@H](NC(=O)[C@H](CC(N)=O)NC(=O)[C@H](CO)NC(=O)[C@H](CC(=O)O)NC3=O)C(=O)N[C@@H](CCCCN)C(=O)N[C@@H](CCCNC(=N)N)C(=O)N[C@@H](CC(N)=O)C(=O)NCC(=O)N[C@@H](Cc1ccc(O)cc1)C(=O)N[C@@H](CCCCN)C(=O)N[C@@H](CO)C(=O)NCC(=O)N[C@@H](CCCCN)C(=O)N2 [CboK1] (H-NVACVHRTCDSNCKRNGYKSGKCINRKCNCYPH-OH; disulfide 4-23, 9-28, 13-30)
effect on Kv1.1 currents (hKv1.1; 100 nM toxin): did not show any effect | Kd (hKv1.1; this study, screened at 100 nM, read-out: Kd Values Kv1.1 (symbol)): > 100 nM | effect on Kv1.2 currents (hKv1.2; 100 nM toxin): totally insensitive; also recorded: did not show any effect | Kd (hKv1.2; this study, CboK1 tested at 100 nM, read-out: Kd Values Kv1.2 (symbol)): > 100 nM | effect on Kv1.3 currents (Kv1.3; 100 nM toxin): did not show any effect | inhibition of Kv1.3 currents (Kv1.3; 100 nM toxin, equilibrium block, screening summary (Figure 4F), n ≥ 3): less than 4% | Kd (Kv1.3; this study, screened at 100 nM, read-out: Kd Values Kv1.3 (symbol)): > 100 nM

CC[C@H](C)[C@H](NC(=O)[C@@H](N)[C@@H](C)O)C(=O)N[C@H](C(=O)N[C@@H](CC(N)=O)C(=O)N[C@H](C(=O)N[C@@H](CCCCN)C(=O)N[C@H]1CSSC[C@@H]2NC(=O)[C@H](CCCCN)NC(=O)[C@H](CCC(=O)O)NC(=O)CNC(=O)[C@H](C)NC(=O)[C@H](Cc3c[nH]cn3)NC(=O)[C@@H]3CCCN3C(=O)CNC(=O)[C@H](Cc3ccc(O)cc3)NC(=O)[C@H](CC(C)C)NC(=O)[C@H](CC(=O)O)NC(=O)[C@H](CCCCN)NC(=O)[C@@H]3CSSC[C@@H](C(=O)N[C@@H](Cc4ccc(O)cc4)C(=O)N[C@@H](CCCCN)C(=O)N[C@H](C(=O)O)C(C)C)NC(=O)[C@H](CCCCN)NC(=O)[C@H](CSSC[C@H](NC(=O)[C@H](CCC(N)=O)NC(=O)[C@H](CCCCN)NC(=O)[C@@H]4CCCN4C(=O)[C@H](CO)NC(=O)[C@H]([C@@H](C)O)NC1=O)C(=O)N[C@@H](CC(C)C)C(=O)N[C@@H](CCCCN)C(=O)N1CCC[C@H]1C(=O)N3)NC(=O)[C@H](CCCCN)NC(=O)CNC(=O)[C@H](CC(N)=O)NC(=O)[C@H](CCSC)NC2=O)C(C)C)[C@@H](C)CC [CboK3] (H-TIINVKCTSPKQCLKPCKDLYGPHAGEKCMNGKCKCYKV-OH; disulfide 7-29, 13-34, 17-36)
Hill coefficient H, Kv1.2 block (hKv1.2; [1]): 1.2 | time for onset of steady-state block and complete recovery, Kv1.3 (Kv1.3; 5, 15, 40, 100, 350 nM toxin): ~ 1 min | Hill coefficient H, Kv1.3 block (Kv1.3; n ≥ 3): 0.96 | reversibility of Kv1.3 block (Kv1.3; wash with toxin-free external solution): fully reversible

CC[C@H](C)[C@H](NC(=O)[C@H](Cc1ccccc1)NC(=O)[C@@H](N)[C@@H](C)O)C(=O)N[C@@H](CC(N)=O)C(=O)N[C@H](C(=O)N[C@@H](CCCCN)C(=O)N[C@H]1CSSC[C@@H]2NC(=O)[C@H](CCCCN)NC(=O)[C@H](CCC(=O)O)NC(=O)CNC(=O)[C@H](C)NC(=O)[C@H](Cc3c[nH]cn3)NC(=O)[C@@H]3CCCN3C(=O)CNC(=O)[C@H](Cc3ccc(O)cc3)NC(=O)[C@H](CC(C)C)NC(=O)[C@H](CC(=O)O)NC(=O)[C@H](CCCCN)NC(=O)[C@@H]3CSSC[C@@H](C(=O)N[C@@H](Cc4ccc(O)cc4)C(=O)N[C@@H](CCCCN)C(=O)N4CCC[C@H]4C(=O)O)NC(=O)[C@H](CCCCN)NC(=O)[C@H](CSSC[C@H](NC(=O)[C@H](CCC(N)=O)NC(=O)[C@H](CCCCN)NC(=O)[C@@H]4CCCN4C(=O)[C@H](CO)NC(=O)[C@H]([C@@H](C)O)NC1=O)C(=O)N[C@@H](CC(C)C)C(=O)N[C@@H](CCCCN)C(=O)N1CCC[C@H]1C(=O)N3)NC(=O)[C@H](CCCCN)NC(=O)CNC(=O)[C@H](CC(N)=O)NC(=O)[C@H](CCSC)NC2=O)C(C)C [CboK4] (H-TFINVKCTSPKQCLKPCKDLYGPHAGEKCMNGKCKCYKP-OH; disulfide 7-29, 13-34, 17-36 (inferred); N-terminus and C-terminus assumed)
inhibition of Kv1.1 currents (hKv1.1; 100 nM toxin, equilibrium block, screening summary (Figure 4D), n ≥ 3): less than 10% | Kd (hKv1.2; Hill fit of RCF vs toxin concentration, cumulative application, equilibrium block, pulses to +50 mV from -120 mV, n ≥ 3, read-out: Kd for Kv1.2): 0.125 nM | Hill coefficient H, Kv1.2 block (hKv1.2; [1]): 1.0 | Hill coefficient H, Kv1.3 block (Kv1.3; n ≥ 3): 0.94 | Kd (Kv1.3; Hill fit of isochronal RCF (current at 4 ms), 15-ms pulses to +50 mV from -120 mV, n ≥ 3, read-out: Kd for Kv1.3): 21.7 nM

CC[C@H](C)[C@H](NC(=O)[C@H](Cc1ccccc1)NC(=O)[C@@H](N)[C@@H](C)O)C(=O)N[C@@H](CC(N)=O)C(=O)N[C@H](C(=O)N[C@@H](CCCCN)C(=O)N[C@H]1CSSC[C@@H]2NC(=O)[C@H](CCCCN)NC(=O)[C@H](CCC(=O)O)NC(=O)CNC(=O)[C@H](C)NC(=O)[C@H](Cc3c[nH]cn3)NC(=O)[C@@H]3CCCN3C(=O)CNC(=O)[C@H](Cc3ccc(O)cc3)NC(=O)[C@H](CC(C)C)NC(=O)[C@H](CC(=O)O)NC(=O)[C@H](CCCCN)NC(=O)[C@@H]3CSSC[C@@H](C(=O)N[C@@H](Cc4ccc(O)cc4)C(=O)N[C@@H](CCCCN)C(=O)N[C@H](C(=O)O)C(C)C)NC(=O)[C@H](CCCCN)NC(=O)[C@H](CSSC[C@H](NC(=O)[C@H](CCC(N)=O)NC(=O)[C@H](CCCCN)NC(=O)[C@@H]4CCCN4C(=O)[C@H](CO)NC(=O)[C@H]([C@@H](C)O)NC1=O)C(=O)N[C@@H](CC(C)C)C(=O)N[C@@H](CCCCN)C(=O)N1CCC[C@H]1C(=O)N3)NC(=O)[C@H](CCCCN)NC(=O)CNC(=O)[C@H](CC(N)=O)NC(=O)[C@H](CCSC)NC2=O)C(C)C [CboK7] (H-TFINVKCTSPKQCLKPCKDLYGPHAGEKCMNGKCKCYKV-OH; disulfide 7-29, 13-34, 17-36)
Hill coefficient H, Kv1.2 block (hKv1.2; [1]): 1.3 | Hill coefficient H, Kv1.3 block (Kv1.3; n ≥ 3): 0.8
